Measurements as given in patent US9670195B2, “Glycosidase inhibitors and uses thereof” (Alectos Therapeutics Inc., priority 2012, dated 2017).

These compounds were tested against human O-GlcNAcase (Homo sapiens (Human), UniProt O60502) (assay: Assay for determination of KI values for inhibition of O-GlcNAcase activity (fluorescence-based)). Details: purified human O-GlcNAcase, 4-Methylumbelliferyl N-acetyl-β-D-glucosaminide substrate, pH 7.0, Cheng-Prusoff; read-out: Fluorescence-based hOGA Ki.
Sequence of human O-GlcNAcase (O60502 whole entry): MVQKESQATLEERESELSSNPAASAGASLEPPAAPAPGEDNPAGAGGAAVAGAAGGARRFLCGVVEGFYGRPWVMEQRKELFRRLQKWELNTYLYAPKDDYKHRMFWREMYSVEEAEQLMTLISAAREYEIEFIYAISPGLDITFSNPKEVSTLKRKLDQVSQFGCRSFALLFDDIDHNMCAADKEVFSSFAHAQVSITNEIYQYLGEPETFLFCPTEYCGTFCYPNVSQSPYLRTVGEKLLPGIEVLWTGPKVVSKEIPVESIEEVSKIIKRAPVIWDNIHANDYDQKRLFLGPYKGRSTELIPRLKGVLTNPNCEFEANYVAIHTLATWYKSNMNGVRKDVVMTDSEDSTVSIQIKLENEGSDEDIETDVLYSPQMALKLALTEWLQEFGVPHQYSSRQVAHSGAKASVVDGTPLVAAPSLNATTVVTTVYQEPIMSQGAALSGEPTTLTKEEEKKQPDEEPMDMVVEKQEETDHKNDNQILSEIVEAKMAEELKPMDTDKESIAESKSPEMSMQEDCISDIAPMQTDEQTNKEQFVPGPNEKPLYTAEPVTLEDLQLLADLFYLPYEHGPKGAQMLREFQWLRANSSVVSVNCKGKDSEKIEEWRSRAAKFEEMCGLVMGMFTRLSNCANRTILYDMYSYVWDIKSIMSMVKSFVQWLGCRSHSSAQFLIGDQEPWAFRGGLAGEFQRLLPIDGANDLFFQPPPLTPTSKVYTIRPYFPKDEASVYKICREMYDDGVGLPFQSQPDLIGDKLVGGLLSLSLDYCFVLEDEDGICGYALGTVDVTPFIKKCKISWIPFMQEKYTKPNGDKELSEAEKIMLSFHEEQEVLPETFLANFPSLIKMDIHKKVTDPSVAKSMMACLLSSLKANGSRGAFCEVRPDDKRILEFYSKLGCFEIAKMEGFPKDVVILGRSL
Assay type: biochemical
Procedure: Assay for Determination of KI Values for Inhibition of O-GlcNAcase Activity
Experimental Procedure for Kinetic Analyses:
Enzymatic reactions are carried out in a reaction containing 50 mM NaH2PO4, 100 mM NaCl and 0.1% BSA (pH 7.0) using 2 mM 4-Methylumbelliferyl N-acetyl-β-D-glucosaminide dihydrate (Sigma M2133) dissolved in ddH2O, as a substrate. The amount of purified human O-GlcNAcase enzyme used in the reaction is 0.7 nM. Test compound of varying concentrations is added to the enzyme prior to initiation of the reaction. The reaction is performed at room temperature in a 96-well plate and is initiated with the addition of substrate. The production of fluorescent product is measured every 60 sec for 45 min with a Tecan Infinite M200 plate-reader with excitation at 355 nm and emission detected at […], with 4-Methylumbelliferone (Sigma M1381) used to produce a standard curve. The slope of product production is determined for each concentration of compound tested and plotted, using standard curve fitting algorithms for sigmoidal dose response curves. The values for a four parameter logistic curve fit of the data are determined.
KI values are determined using the Cheng-Prusoff equation; the Km of O-GlcNAcase for substrate is 0.2 mM.
`CC(=O)N[C@H]1CN[C@@H](CO)[C@@H]1O` showed a Ki of 5.9 µM. Compound `CCCCN1C[C@H](NC(C)=O)[C@@H](O)[C@@H]1CO` has a Ki of 15 µM. With `CC(=O)N[C@H]1CN(CCCc2ccccc2)[C@@H](CO)[C@@H]1O` [Example 1, N-((3S,4R,5S)-4-hydroxy-5-(hydroxymethyl)-1-(3-phenylpropyl)pyrrolidin-3-yl)acetamide] the Ki was 16.5 µM.
